This note sets out measurements from US5773646A, “Meta-substituted phenylene derivatives” (G. D. Searle & Co., priority 1997, dated 1998).

For orientation: pIC50 means the negative decadic logarithm of the IC50, by convention in mol/L.

Assay [1] concerns the target T1, Human vitronectin receptor (αv β3) (Homo sapiens, UniProt P05106+P06756).
T1 construct: Human vitronectin receptor(αv β3) was purified from human placenta; from tissue; host or cells: human placenta
Put plainly: Vitronectin adhesion assay (solid phase receptor assay, biotinylated vitronectin competition). In kind it is binding. How it is done: VITRONECTIN ADHESION ASSAY Human vitronectin receptor(αv β3) was purified from human placenta as previously described [Pytela et al., Methods in Enzymology, 144:475-489 (1987)). Human vitronectin was purified from fresh frozen plasma as previously described [Yatohgo et al., Cell Structure and Function, 13:281-292 (1988)]. Biotinylated human vitronectin was prepared by coupling NHS-biotin from Pierce Chemical Company (Rockford, Ill.) to purified vitronectin as previously described [Charo et al., J. Biol. Chem., 266(3):1415-1421 (1991)]. Assay buffer, OPD substrate tablets, and RIA grade BSA were obtained from Sigma (St. Louis, Mo.). Anti-biotin antibody was obtained from Calbiochem (La Jolla, Calif.). Linbro microtiter plates were obtained from Flow Labs (McLean, Va.). ADP reagent was obtained from Sigma (St. Louis, Mo.). Solid Phase Receptor Assays This assay was essentially the same as previously reported [Niiya et al., Blood, 70:475-483 (1987)]. The purified human vitronectin receptor (αv β3) was diluted from stock solutions to 1.0 μg/mL in Tris-buffered saline containing 1.0 mM Ca^++, Mg^++, and Mn^++, pH 7.4 (TBS^+++). The diluted receptor was immediately transferred to Linbro microtiter plates at 100 μL/well (100 ng receptor/well). The plates were sealed and incubated overnight at 4° C. to allow the receptor to bind to the wells. All remaining steps were at room temperature. The assay plates were emptied and 200 μL of 1% RIA grade BSA in TBS^+++ (TBS^+++ /BSA) were added to block exposed plastic surfaces. Following a 2 hour incubation, the assay plates were washed with TBS^+++ using a 96 well plate washer. Logarithmic serial dilution of the test compound and controls were made starting at a stock concentration of 2 mM and using 2 nM biotinylated vitronectin in TBS^+++ /BSA as the diluent. This premixing of labeled ligand with test (or control) ligand, and subsequent transfer of 50 μL aliquots to the assay plate was carried out with a CETUS Propette robot; the final concentration of the labeled ligand was 1 nM and the highest concentration of test compound was 1.0×10^-4 M. The competition occurred for two hours after which all wells were washed with a plate washer as before. Affinity purified horseradish peroxidase labeled goat antibiotin antibody was diluted 1:3000 in TBS^+++ /BSA and 125 μL were added to each well. After 30 minutes, the plates were washed and incubated with OPD/H2 O2 substrate in 100 mM/L Citrate buffer, pH 5.0. The plate was read with a microtiter plate reader at a wavelength of 450 nm and when the maximum-binding control wells reached an absorbance of about 1.0, the final A450 were recorded for analysis. The data were analyzed using a macro written for use with the EXCEL™ spreadsheet program. The mean, standard deviation, and %CV were determined for duplicate concentrations. The mean A450 values were normalized to the mean of four maximum-binding controls (no competitor added)(B-MAX). The normalized values were subjected to a four parameter curve fit algorithm [Rodbard et al., Int.

Assay [2] addresses T2, Human fibrinogen receptor (αIIb β3) (Homo sapiens, UniProt P05106+P08514).
T2 construct: Human fibrinogen receptor (αIIb β3) was purified from outdated platelets; from tissue; host or cells: outdated human platelets
Put plainly: Purified IIb/IIIa receptor assay (solid phase receptor assay, biotinylated vitronectin competition). The following applies: inhibition of 50% of the maximum binding of biotinylated vitronectin; 1 nM labeled ligand, 2 hours, room temperature, highest concentration of test compound 1.0×10^-4 M. The source says: PURIFIED IIb/IIIa RECEPTOR ASSAY Human fibrinogen receptor (αIIb β3) was purified from outdated platelets. (Pytela, R., Pierschbacher, […]., Suzuki, S., and […] acid adhesion receptors", Methods in Enzymology 144(1987):475-489.) Human vitronectin was purified from fresh frozen plasma as described in Yatohgo, T., Izumi, M., Kashiwagi, H., and Hayashi, M., "Novel purification of vitronectin from human plasma by heparin affinity chromatography," Cell Structure and Function 13(1988):281-292. Biotinylated human vitronectin was prepared by coupling NHS-biotin from Pierce Chemical Company (Rockford, Ill.) to purified vitronectin as previously described. (Charo, […]., Phillips, D. R., Hsu, M. A., Scarborough, R. M., "Inhibition of fibrinogen binding to GP IIb/IIIa by a GP IIIa peptide", J. Biol. Chem. 266(3)(1991):1415-1421.) Assay buffer, OPD substrate tablets, and RIA grade BSA were obtained from Sigma (St. Louis, Mo.). Anti-biotin antibody was obtained from Calbiochem (La Jolla, Calif.). Linbro microtiter plates were obtained from Flow Labs (McLean, Va.). ADP reagent was obtained from Sigma (St. Louis, Mo.). Solid Phase Receptor Assays This assay is essentially the same reported in […]., Bader, R., Byers-Ward, […]., Plow, E. F. and Ruggeri, Z. M., "Increased surface expression of the membrane glycoprotein IIb/IIIa complex induced by platelet activation: Relationships to the binding of fibrinogen and platelet aggregation", Blood 70(1987):475-483. The purified human fibrinogen receptor (αIIb β3) was diluted from stock solutions to 1.0 μg/mL in Tris-buffered saline containing 1.0 mM Ca^++, Mg^++, and Mn^++, pH 7.4 (TBS^+++). The diluted receptor was immediately transferred to Linbro microtiter plates at 100 μL/well (100 ng receptor/well). The plates were sealed and incubated overnight at 4° C. to allow the receptor to bind to the wells. All remaining steps were at room temperature. The assay plates were emptied and 200 μL of 1% RIA grade BSA in TBS^+++ (TBS^+++ /BSA) were added to block exposed plastic surfaces. Following a 2 hour incubation, the assay plates were washed with TBS^+++ using a 96 well plate washer. Logarithmic serial dilution of the test compound and controls were made starting at a stock concentration of 2 mM and using 2 nM biotinylated vitronectin in TBS^+++ /BSA as the diluent. This premixing of labeled ligand with test (or control) ligand, and subsequent transfer of 50 μL aliquots to the assay plate was carried out with a CETUS Propette robot; the final concentration of the labeled ligand was 1 nM and the highest concentration of test compound was 1.0×10^-4 M. The competition occurred for two hours after which all wells were washed with a plate washer as before. Affinity purified horseradish peroxidase labeled goat antibiotin antibody was diluted 1:3000 in TBS^+++ /BSA and 125 μL were added to each well. After 30 minutes, the plates were washed and incubated with […]/H2 O2 substrate in 100 mM/L citrate buffer, pH 5.0. The plate was read with a microtiter plate reader at a wavelength of 450 nm and when the maximum-binding control wells reached an absorbance of about 1.0, the final A450 were recorded for analysis. The data were analyzed using a macro written for use with the EXCELTM spreadsheet program. The mean, standard deviation, and %CV were determined for duplicate concentrations. The mean A450 values were normalized to the mean of four maximum-binding controls (no competitor added)(B-MAX). The normalized values were subjected to a four parameter curve fit algorithm, [Robard et al., Int.

Where [3] appears, read: inhibition of 50% of the maximum binding of biotinylated vitronectin, 1 nM labeled ligand, 2 hours, room temperature, highest concentration of test compound 1.0×10^-4 M, read-out: AvB3 IC50.

Molecules are shown by their SMILES. pIC50: −log10 of the molar value. Structures can show the parent of a compound that is named as a salt. Where two headings read alike, the source gives them in different places. Bounds are passed on as bounds.

In the case of `CC(CC(=O)O)c1cccc(CNC(=O)c2cccc(NC(=N)N)c2)c1` (stereo not drawn) [Example 40, 3-[[[[3-[(aminoiminomethyl)amino]phenyl]carbonyl]amino]methyl]-β-methylbenzenepropanoic acid, trifluoroacetate salt], the pIC50 in assay [1] (setting [3]) was 7.94; in assay [2], 5.65.

On to `N=C(N)Nc1cccc(S(=O)(=O)Nc2cccc(C(CC(=O)O)c3cc(F)c(F)c(F)c3)c2)c1` (stereo not drawn) [Example 80, β-[3-[[[3-[(aminoiminomethyl)amino]phenyl]sulfonyl]amino]phenyl]-3,4,5-trifluorobenzenepropanoic Acid, Trifluoroacetate Salt], for which the pIC50 in assay [1] (setting [3]) is 7.89; in assay [2], 5.86.

On to `N=C(N)Nc1cccc(S(=O)(=O)Nc2cccc(C(CC(=O)O)c3ccccc3O)c2)c1` (stereo not drawn) [Example 102, Sodium β-[3-[[[3[(aminoiminomethyl)amino]phenyl]-sulfonyl]amino]phenyl]-2-hydroxybenzenepropanoate, Trifluoroacetate Salt], for which the pIC50 in assay [1] (setting [3]) was 7.63; in assay [2], 6.15.

For `NC(=O)N=C(N)Nc1cccc(S(=O)(=O)Nc2cccc(C(CC(=O)O)c3cc(Cl)cc(Cl)c3)c2)c1` (stereo not drawn) [Example 90, β-[3-[[[3-[[amino[(aminocarbonyl)imino]methyl]amino]phenyl]sulfonyl]amino]phenyl]-3,5-dichlorobenzenepropanoic Acid, Trifluoroacetate Salt], the pIC50 in assay [1] (setting [3]) was 7.05; in assay [2], 4.86.

In the case of `CCC(CC(=O)O)c1cccc(CNC(=O)c2cc(NC(=N)N)cc(C(F)(F)F)c2)c1` (racemic) [Example 59, (±) 3-[[[[3-[(aminoiminomethyl)amino]-5(trifluoromethyl)phenyl]carbonyl]amino]methyl]-β-ethylbenzenepropanoic acid, trifluoroacetate salt], the pIC50 in assay [1] (setting [3]) is 8.41; in assay [2], 5.50.

For the compound `N=C(N)Nc1cccc(S(=O)(=O)Nc2cccc(C(CC(=O)O)c3ccccc3)c2)c1` (stereo not drawn) [Example 1, 3-[[[3-[(aminoiminomethyl)amino]phenyl]sulfonyl]amino]-β-phenylbenzenepropanoic acid, trifluoroacetate salt], the pIC50 in assay [1] (setting [3]) was 7.78; in assay [2] it was 6.20.

On to `N=C(N)Nc1cccc(C(=O)NCc2cccc(C(CC(=O)O)c3cc(F)cc(F)c3)c2)c1` (racemic) [Example 60, (±) β-[3-[[[[3-[(aminoiminomethyl)amino]phenyl]carbonyl]amino]methyl]phenyl]-3,5-difluorobenzenepropanoic acid, trifluoroacetate salt], for which the pIC50 in assay [1] (setting [3]) was 8.34; in assay [2], 6.54.

In the case of `N=C(N)Nc1cccc(C(=O)Nc2cccc(CC(=O)O)c2)c1` [Example 50, 3-[[[3-[(aminoiminomethyl)amino]phenyl]carbonyl]amino]benzeneacetic acid, trifluoroacetate salt], the pIC50 in assay [1] (setting [3]) is less than 4.00; in assay [2] it was 4.26.

`N=C(N)Nc1cccc(C(=O)Nc2cccc(C(CC(=O)O)c3ccccc3)c2)c1` (stereo not drawn) [Example 2, 3-[[[3-[(aminoiminomethyl)amino]phenyl]carbonyl]amino]-β-phenylbenzenepropanoic acid, trifluoroacetate salt]: the pIC50 was 6.30 in assay [1] (setting [3]) and 5.42 in assay [2].

In the case of `N=C(N)Nc1cccc(NC(=O)Nc2cccc(OCC(=O)O)c2)c1` [Example 52, [3-[[[[3-[(aminoiminomethyl)amino]phenyl]amino]carbonyl]amino]phenoxy]acetic acid, trifluoroacetate salt], the results for the pIC50 in assay [1] (setting [3]) and in assay [2] were 4.78 and 4.40, respectively.

As for `O=C(O)CCc1cccc(OCC(O)c2cccc(NC3=NCCN3)c2)c1` (centres unmarked) [Example 71, 3-[2-[3-[(4,5-dihydro-1H-imidazol-2-yl)amino]phenyl]-2-hydroxyethoxy]benzenepropanoic acid, trifluoroacetate salt], the pIC50 in assay [1] (setting [3]) is 7.52; in assay [2], 5.01.

`CCC(CC(=O)O)c1cccc(NS(=O)(=O)c2cccc(NC(=N)N)c2)c1` (stereo not drawn) [Example 94, 3-[[[3-[(aminoiminomethyl)amino]phenyl]sulfonyl]amino]-β-ethylbenzenepropanoic Acid, Trifluoroacetate Salt]: the values for the pIC50 in assay [1] (setting [3]) and in assay [2] were 7.92 and 5.69, respectively.

For `N=C(N)Nc1cccc(CNc2cccc(C(CC(=O)O)c3ccccc3)c2)c1` (stereo not drawn) [Example 11, 3-[[[3-[(aminoiminomethyl)amino]phenyl]methyl]amino]-β-phenylbenzenepropanoic acid, trifluoroacetate salt], the pIC50 in assay [1] (setting [3]) was 6.26; in assay [2], 5.61.

Take `CCC(CC(=O)O)c1cccc(CNC(=O)c2ccc(Cl)c(NC(=N)N)c2)c1` (racemic) [Example 58, (±) 3-[[[[3-[(aminoiminomethyl)amino]-4-chlorophenyl]carbonyl]amino]methyl]-β-ethylbenzenepropanoic acid, trifluoroacetate salt]: the pIC50 was 7.94 in assay [1] (setting [3]) and 5.29 in assay [2].

As to `N=C(N)NCCCCC(=O)NCC(=O)NC(CC(=O)O)c1cccnc1` (stereo not drawn) [β-[[2-[[5-[(aminoiminomethyl)amino]-1-oxopentyl]amino]-1-oxoethyl]amino]-3-pyridinepropanoic acid], the pIC50 in assay [1] (positive control included on each plate, range given in text, read-out: αv β3 antagonist IC50 (positive control)) is 8.00 to 8.52.
